In patent US6673965B1, “Hydroxamic acid derivative as inhibitor of the formation of soluble human CD23” (SmithKline Beecham P.L.C., priority 1999, dated 2004):
Values joined by “and” are separate entries in the source; they are usually repeats but may differ in a detail not shown here. Equal entries are not always repeated. Where two headings read alike, the source gives them in different places.

How the values were obtained:
[1] = i.v. pharmacokinetic parameters and oral bioavailability in male Beagle dogs; assay type: in vivo; conditions: Dog
Method: (§1) Procedure 4: The bioavailability of test compounds was investigated using the following bio-equivalence studies.
A Study to Estimate the i.v. Pharmacokinetic Parameters and Oral Bioavailability in Male Beagle Dogs
This study was conducted using a crossover design on two separate study days, seven days apart. Three male Beagle dogs were used in this study. On each study day, a catheter was temporarily placed in a cephalic vein for blood sampling; on study day one only, a catheter was also temporarily placed in a saphenous vein for i.v. infusion.
(§2) On study day one, each animal received test compound (2.0 umol/kg target dose) as a 1-h intravenous infusion (4.0 mL/kg). The dose solution was prepared in 20% aqueous Encapsin® (pH=8.0) and contained 1% DMSO. Encapsin® (Cerestar USA Inc., Hammond, Ind.) is hydroxypropyl-beta-cyclodextrin, a cyclic oligosaccharide (7 glucose units) used to enhance solubility in the preparation of dose solutions that otherwise would require formulation using non-aqueous solvents.
On study day two, each animal received test compound (6.0 umol/kg target dose ) by oral gavage (8.0 mL/kg). The dose solution was prepared in 5% aqueous succinated porcine gelatin (pH=7.5) and contained 1% DMSO.
Plasma concentrations of test compound were quantified by LC/MSIMS (LLQ=10 ng/mL). Noncompartmental methods were used for analysis of plasma concentration versus time data.

[2] = tested on: TNFα release from human monocytes; experiment: Inhibition of release of TNFα from human monocytes stimulated by LPS; assay type: cell-based; conditions: at 10 uM; LPS 200 ng/ml, 18-20 hrs
Method: Procedure 3: The ability of test compounds to inhibit TNF release was investigated using the following procedure.
Assay for Inhibition of Release of TNFα From Human Monocytes Stimulated by Lipopolysaccharide (LPS) Endotoxin
Human monocytes, cultured in RPMI 1640 medium supplemented with 10% fetal calf serum, are centrifuged at 1000×g for 5 min and then resuspended in medium at 2×10^6 cells/ml. The cell suspension is aliquoted in 24 well plates, 1 ml per well. Compounds to be tested are dissolved in neat dimethyl sulfoxide (DMSO) and added to culture with the final DMSO concentration at 0.1%. Compounds are added to cells in triplicate wells. TNF α release is stimulated by addition of LPS to the cells at a final concentration of 200 ng/ml. Appropriate control cultures are set up in triplicates also. The plates are incubated for 18-20 hrs at 37° C., 5% CO2, then centrifuged at 1000×g for 5 min. A specific ELISA for human TNFα (SmithKline Beecham) is used to measure TNF levels in the cell-free culture supernatants.

[3] = i.v. pharmacokinetic parameters and oral bioavailability in male Cynomolgus monkeys; assay type: in vivo
Method: as §1
A Study to Estimate the i.v. Pharmacokinetic Parameters and Oral Bioavailability in Male Cynomolgus Monkeys
This study was conducted using a crossover design on two separate studv days, seven days apart. Three male Cynomolgus monkeys were used for this study. On both study days, a catheter was placed in a saphenous vein for collection of blood samples. On study day one, a catheter also was temporarily placed in a contralateral saphenous vein for i.v. infusion.
as §2, with “animal (fasted)” for “animal”
On study day two, each animal (fasted) received test compound (6.0 umol/kg target dose) by oral gavage (8.0 mL/kg). The dose solution was prepared in 5% aqueous succinated porcine gelatin (pH=8.0) and contained 1% DMSO.
Blood samples were obtained from the femoral vein catheter; plasma was isolated by centrifugation. Plasma concentrations of test compound were quantified by LC/MS/MS (LLQ=10 ng/mL). Noncompartmental methods were used for pharmacokinetic analysis of plasma concentration versus time data.

[4] = tested on: release of soluble CD23 from RPMI 8866 cell plasma membranes; experiment: RPMI 8866 cell membrane CD23 cleavage activity assay; assay type: biochemical, human; conditions: RPMI 8866 membranes, 37° C., sCD23 by EIA; read-out: IC50 (50% inhibition of production of sCD23)
Method: Procedure 1: The ability of test compounds to inhibit the release of soluble CD23 was investigated by use of the following procedure.
RPMI 8866 Cell Membrane CD23 Cleavage Activity Assay
Plasma membranes from RPMI 8866 cells, a human Epstein-Barr virus transformed B-cell line (Sarfati et al., Immunology 60 [1987] 539-547) expressing high levels of CD23 are purified using an aqueous extraction method. Cells resuspended in homogenization buffer (20 mM HEPES pH 7.4, 150 mM NaCl, 1.5 mM MgCl2, 1 mM DTT) are broken by N2 cavitation in a Parr bomb and the plasma membrane fraction mixed with other membranes is recovered by centrifugation at 10,000×g. […]
The fractionated membranes are incubated at 37° C. for times up to 4 hrs to produce fragments of CD23 which are separated from the membrane by filtration in 0.2 micron Durapore filter plates (Millipore) after quenching the assay with 5 uM Preparation 1 from P 30994. sCD23 released from the membrane is determined using the EIA kit from The Binding Site (Birmingham, UK) or a similar one utilizing MHM6 anti-CD23 mAb [Rowe et al., Int. […] The amount of soluble CD23 made by 0.5 ug membrane protein in a total volume of 50 ul phosphate-buffered saline is measured by EIA and compared to the amount made in the presence of various concentrations of inhibitors. […]

[5] = i.v. pharmacokinetic parameters and oral bioavailability in male Sprague Dawley rat; assay type: in vivo; conditions: for half-life: rat, 2 mg/kg, two-compartment model
Method: as §1
A Study to Estimate the i.v. Pharmacokinetic Parameters and Oral Bioavailability in Male Sprague Dawley Rat
This study was carried out using a crossover design on four separate study days. Three rats received surgically-implanted femoral vein catheters for infusion of test molecules at least three days prior to the start of the study. All doses in this study were prepared using crystalline test compound.
On study day one, the animals (fed) received test compound as a 30-min intravenous infusion at a target dosage of 4.0 umol/kg (4.0 mL/kg). The dose solution was prepared in 20% aqueous Encapsin® (pH=8.0) and contained 1% DMSO. Encapsin® (Cerestar USA Inc., Hammond, Ind.) is hydroxypropyl-beta-cyclodextrin, a cyclic oligosaccharide used to enhance solubility of compounds that otherwise would require formulation using non-aqueous solvents.
On study day two, the animals (fasted) received test compound as a solution at a target dosage of 8 umol/kg by oral gavage (16 mL/kg). The dose solution was prepared in 5% aqueous succinated porcine gelatin (pH=7.5) and contained 1% DMSO. Blood samples were collected from a lateral tail vein. A 25-uL aliquot of each whole blood sample was added to 25 uL of water and allowed to stand on ice for approximately 5 min to facilitate complete hemolysis; samples then were stored frozen until analvsis. Blood concentrations of test compound were quantified by LC/MS/MS (LLQ=10.0 ng/mL). […] Various compartmental models and weighting paradigms were employed; a two-compartment model with first-order elimination from the central compartment and iterative least squares weighting with a weight of 1/Y^2 provided the best fit to the observed data, according to standard model selection criteria (i.e., Akaike's Information Criterion, Schwartz Criterion, and sum of squared residuals). Pharmacokinetic parameters were calculated using the best-fit compartmental model; all calculations that required the use of AUC values (including bioavailability) were performed using the AUC recovered from noncompartmental analysis.

[6] = male, Beagle, plasma, iv dose = 0.96 mg/kg
[7] = Monkey, iv dose = 0.92 mg/kg, individual values, 0.92 mg/kg
[8] = male, Sprague Dawley, whole blood, iv, i.v. dose = 2.0 mg/kg

- T1/2 ([1]; iv dose = 0.96 mg/kg, individual values, 0.96 mg/kg): 252 min and 259 min and 49 min
- Oral F ([1]; oral gavage, po dose = 2.7 mg/kg vs iv 0.96 mg/kg): 29.0 ± 3.7%
- MRT [1, 6]: 1.07 h
- clearance [1, 6]: 10.6 ± 4.5 mL/min/kg
- Vd ([1]; male, Beagle, plasma, iv dose = 0.96 mg/kg, read-out: Vdss): 0.563 ± 0.204 L/kg
- Cmax ([1]; male, Beagle, 1-h i.v. infusion, iv dose = 0.96 mg/kg, plasma): 1410 ± 465 ng/mL
- Oral F ([3]; Monkey, fasted, oral gavage 2.8 mg/kg Solution vs iv 0.92 mg/kg, individual values): 21.1% and 6.0% and 22.5%
- MRT [3, 7]: 311 min and 59.5 min and 68.1 min
- T1/2 [3, 7]: 691 min and 85.1 min and 208 min
- Vdss [3, 7]: 4.09 L/kg and 1.11 L/kg and 0.827 L/kg
- Cmax ([3]; male, cynomolgus monkey, 1-h i.v. infusion, iv dose = 0.92 mg/kg, plasma): 1010 ± 175 ng/mL
- clearance ([3]; male, cynomolgus monkey, plasma, iv dose = 0.92 mg/kg): 14.7 ± 3.6 mL/min/kg
- IC50 [4]: 60 nM
- Oral F ([5]; fasted, oral gavage 3.7 mg/kg solution vs i.v. 2.0 mg/kg): 50.6 ± 10.6%
- half-life ([5]; male, Sprague Dawley, whole blood, iv, i.v. dose = 2.0 mg/kg, read-out: T1/2 (α)): 10.8 ± 5.3 min
- half-life ([5]; male, Sprague Dawley, whole blood, iv, i.v. dose = 2.0 mg/kg, read-out: T1/2 (β)): 234 ± 139 min
- Cmax ([5]; male, Sprague Dawley, whole blood, iv, 30-min i.v. infusion, i.v. dose = 2.0 mg/kg, blood): 1340 ± 296 ng/mL
- MRT [5, 8]: 2.13 h
- clearance [5, 8]: 26.4 ± 8.5 mL/min/kg
- Vd ([5]; male, Sprague Dawley, whole blood, iv, i.v. dose = 2.0 mg/kg, read-out: Vdss): 3.25 ± 1.7 L/kg
Compound: CNC(=O)[C@@H](NC(=O)[C@H](Cc1ccc2ccccc2c1)[C@H](OC(C)C)C(=O)NO)C(C)(C)C [N′-[4-(N-hydroxyamino)-3S-isopropoxy-2R-(2-naphthylmethyl)succinyl]-S-tert-leucine methylamide]
- effect on TNF release [2]: no effect
